Measurements as given in publication PMC8510591, “A comprehensive study of the basic formulation of supersaturated self-nanoemulsifying drug delivery systems (SNEDDS) of albendazolum” (Drug Delivery, 2021).
Values after ≈ are worked out from the molar mass of the structure shown.

How the values were obtained:
[1] = ABZ solubility in oils, surfactants and co-surfactants; assay type: physicochemical; details: 37 °C, 72 h
Protocol: The solubility tests were carried out on various oils, surfactants, and co-surfactants. The solubility determination method previously used by Meena et al. ([2012]) was employed. Excess ABZ was added to a volume of 1 g of the tested oil, surfactants, and co-surfactants, and placed in well-stoppered vials. The vials were agitated for 72 h (specified after determination of the equilibrium time beyond which the solubility is stable) at 37 ± 0.05 °C in a constant temperature water bath until equilibrium was attained. Subsequently, the vial's contents were centrifuged at 4000 rpm for 15 min using an ultracentrifuge to separate the insoluble ABZ. After being diluted with the solvent mixture (methanol and 1 N HCl with 7:3), the supernatants were filtered through a cellulose filter ([…]), and the ultraviolet absorbance of the filtrates was measured using the tested oil diluted with the solvent mixture as a blank to be 248 nm using a UV spectrophotometer. The materials used in the study included sunflower oil, Captex 300, PEG 300. PEG 400, soya oil, olive oil, crodamol oil, corn oil, Lauroglycol FCC, Cremophor EL, Solutol HS15, Labrafac lipophile WL1349, Capmul PG8, SPAN 20, Captex 355, Tween 80, Acrysol […], Labrasol, Cremophor RH40, Acrysol K140, Maisine, Sesame oil, Capmul MCM, Capryol PGMC, and propylene glycol. Results from each experiment were expressed as values in μg/mL.

[2] = ABZ saturated solubility in the selected SNEDDS pre-concentrate and in water; assay type: physicochemical
Protocol: Excess ABZ was added to keep the glass vials containing 1 g of selected optimized SNEDDS preconcentrate (composed of 5% oleic acid, 65% tween 20, 30% PEG) airtight. The suspension was incubated at 30 ± 0.5 °C in a water bath for 72 h to attain equilibrium (Kang et al., [2012]). The suspension was then centrifuged for 15 min at 4000 rpm, after three days using an ultracentrifuge to eliminate the undissolved ABZ. This was then followed by filtration of the supernatant with a 0.22 µm membrane filter. After the desired dilution with solvent (methanol and 1 N HCl with 7:3) was achieved, the ultraviolet absorbance of the filtrate was measured using a UV spectrophotometer at 248 nm. Blanks of plain SNEDDS not containing any drugs diluted in the same ratio were used to cancel interference from the SNEDDS preconcentrate. The experiment was repeated thrice, and the average drug saturated solubility in mg/mL of the selected SNEDDS was calculated.

SMILES: CCCSc1ccc2nc(NC(=O)OC)[nH]c2c1 [ABZ, Albendazolum]
- Total solubility ([1]; in Acrysol K140): 46.60 µg g^–1
- Total solubility ([1]; in Acrysol K150): 46.18 µg g^–1
- Total solubility ([1]; in Capmul MCM): 5.59 µg g^–1
- Total solubility ([1]; in Capmul PG8): 139.88 µg g^–1
- Total solubility ([1]; in Capryol PGMC): 179.48 µg g^–1
- Total solubility ([1]; in Captex 300): 40.23 µg g^–1
- Total solubility ([1]; in Captex 355): 99.37 µg g^–1
- Total solubility ([1]; in Cremophor EL): 179.76 µg g^–1
- Total solubility ([1]; in Cremophor RH40): 46.72 µg g^–1
- Total solubility ([1]; in Crodamol oil): 23.61 µg g^–1
- Total solubility ([1]; in Labrafac lipophile WL1349): 96.78 µg g^–1
- Total solubility ([1]; in Labrasol): 188.13 µg g^–1
- Total solubility ([1]; in Lauroglycol FCC): 186.05 µg g^–1
- Total solubility ([1]; in Maisine): 18.43 µg g^–1
- Total solubility ([1]; in Oleic acid): 734.20 µg g^–1
- Total solubility ([1]; in Olive oil): 0.79 µg g^–1
- Total solubility ([1]; in PEG 300): 340.45 µg g^–1
- Total solubility ([1]; in PEG 600): 498.90 µg g^–1
- Total solubility ([1]; in Propylene glycol): 194.47 µg g^–1
- Total solubility ([1]; in SPAN 20): 185.79 µg g^–1
- Total solubility ([1]; in Sesame oil): 3.73 µg g^–1
- Total solubility ([1]; in Solutol HS15): 193.44 µg g^–1
- Total solubility ([1]; in Soya oil): 3.62 µg g^–1
- Total solubility ([1]; in Sunflower oil): 0.43 µg g^–1
- Total solubility ([1]; in Tween 20): 210.45 µg g^–1
- Total solubility ([1]; in Tween 80): 172.19 µg g^–1
- average increase of solubility, SNEDDS pre-concentrate vs water ([2]; SNEDDS pre-concentrate relative to water): 89 fold
- solubility at 72 h ([2]; SNEDDS preconcentrate 5% oleic acid, 65% tween 20, 30% PEG, 30 °C, 72 h): 125 µg/mL (≈ 471 µM)
- solubility ([2]; water): 1.4 µg/mL (≈ 5.28 µM)
